The target in test [1] is T1, PARP15 (Homo sapiens, UniProt Q460N3).
T1 sequence (Q460N3 481-678): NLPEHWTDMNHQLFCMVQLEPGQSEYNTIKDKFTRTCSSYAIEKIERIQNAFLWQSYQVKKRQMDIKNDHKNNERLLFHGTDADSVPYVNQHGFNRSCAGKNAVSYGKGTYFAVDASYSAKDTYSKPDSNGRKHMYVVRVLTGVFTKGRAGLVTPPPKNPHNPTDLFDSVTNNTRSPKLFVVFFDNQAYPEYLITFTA
Nature of the test: MLISA inhibition of PARP15-catalyzed automodification. It counts as biochemical. Conditions: for inhibition effects on PARP15 activity: at concentrations up to 100 μM.

In test [2] the test system is PARP15. The settings on record: read-out: Km of PARP15 for automodification; reported previously; cited from earlier work.

We go through 7 compounds from article PMC5826802 (Analytical biochemistry, 2017).

Each structure is given as a SMILES string.

In general, IC50 refers to the concentration that gives 50% inhibition. Low values mean greater potency in that assay, high ones weaker potency in that assay. Usually pIC50 stands for −log10 of the IC50, conventionally taken in molar units. A low value points to a large IC50. The Km is the substrate concentration at which the rate is half of its maximum.

In test [1], `Oc1cccc2c(O)nccc12` [1,5-Isoquinolinediol, 1,5-isoquinolinediol] had an IC50 of 8.5 ± 2.7 µM.

As for `O=c1[nH]c2ccccc2c2ccccc12` [6(5H)-Phenanthridinone, 6(5H)-phenanthridinone], in test [1], the IC50 stood at 1.5 ± 0.5 µM.

As to `Nc1ncnc2[nH]cnc12` [Adenine, adenine], the “inhibition effects on PARP15 activity” value in test [1] is recorded as “no significant inhibition effects”.

In turn, `Cc1nc2c(c(=O)[nH]1)CSCC2` [DR2313] showed a pIC50 in test [1] (PARP15, 500 nM enzyme, 500 μM NAD+) of 5.1.

For `CN(C)c1ccc(O)c2c1C[C@H]1C[C@H]3[C@H](N(C)C)C(O)=C(C(N)=O)C(=O)[C@@]3(O)C(O)=C1C2=O` [Minocin], the “inhibition effects on PARP15 activity” value in test [1] is given as “no significant inhibition effects”.

As for `NC(=O)c1ccc[n+]([C@@H]2O[C@H](COP(=O)([O-])OP(=O)(O)OC[C@H]3O[C@@H](n4cnc5c(N)ncnc54)[C@H](O)[C@@H]3O)[C@@H](O)[C@H]2O)c1` [NAD^+, nicotinamide adenine dinucleotide], the Km in test [2] is 5.8 ± 1.9 µM.

Take `Oc1nc(-c2ccc(C(F)(F)F)cc2)nc2c1CSCC2` [XAV939]: the “inhibition effects on PARP15 activity” value in test [1] is “no significant inhibition effects”.
